Patent US11883503B2, “Methods and compositions for cancer treatment” (DINGFU BIOTARGET CO., LTD., priority 2017, dated 2024)

Tested on: peripheral blood lymphocytes
Assay: Flow cytometry of CD4+ and CD8+ lymphocytes in peripheral blood after FTY720
Assay type: in vivo, mice
Details: 3 days after first administration of FTY720
Protocol: FTY720 (SIGMA, Cat #SML0700-5MG) was used to test activation of T cells in the tumor microenvironment. FTY720 is a lipophilic immunomodulatory sphingosine-1-phosphate analog, it induces severe peripheral blood lymphopenia and sustains lymphopenia in mice by preventing lymphocytes to egress from lymph organs through agonist-induced receptor internalization.
B16-EGFR-SIY cells were inoculated s.c. into the both flanks of mice. […] Then 3 days later, after the first administration of depletion antibodies or FTY720, lymphocytes suspensions were prepared from their peripheral blood, and labeled with APC-anti-mCD4 (clone GK1.5, BioLegend), FITC-anti-mCD8a (clone 53-6.7, BioLegend), FITC-anti-mCD3 (clone 17A2, BioLegend), or APC-anti-mNK1.1 (clone PK136, BioLegend). Tumor volumes on the both flanks were measured and monitored. Samples were analyzed on a Life Attune Flow Cytometer (Life), and data were analyzed. Representative data is shown in FIG. 6C-6F, based on results obtained from three experiments conducted with 5-6 mice per group.

For CCCCCCCCc1ccc(CCC(N)(CO)CO)cc1 [FTY720], the “relative number of CD4+ T cells in peripheral blood” value was ~1.5% and the “relative number of CD8+ T cells in peripheral blood” value was “about 0.5%”.
